Article PMC6025622, “A Novel Atypical PKC-Iota Inhibitor, Echinochrome A, Enhances Cardiomyocyte Differentiation from Mouse Embryonic Stem Cells” (Marine Drugs, 2018)

Biological target: T1, atypical protein kinase C-iota (PKCι) (Homo sapiens, UniProt P41743)
T1 construct: gene PRKCI; full-length protein
T1 sequence (P41743 2-596): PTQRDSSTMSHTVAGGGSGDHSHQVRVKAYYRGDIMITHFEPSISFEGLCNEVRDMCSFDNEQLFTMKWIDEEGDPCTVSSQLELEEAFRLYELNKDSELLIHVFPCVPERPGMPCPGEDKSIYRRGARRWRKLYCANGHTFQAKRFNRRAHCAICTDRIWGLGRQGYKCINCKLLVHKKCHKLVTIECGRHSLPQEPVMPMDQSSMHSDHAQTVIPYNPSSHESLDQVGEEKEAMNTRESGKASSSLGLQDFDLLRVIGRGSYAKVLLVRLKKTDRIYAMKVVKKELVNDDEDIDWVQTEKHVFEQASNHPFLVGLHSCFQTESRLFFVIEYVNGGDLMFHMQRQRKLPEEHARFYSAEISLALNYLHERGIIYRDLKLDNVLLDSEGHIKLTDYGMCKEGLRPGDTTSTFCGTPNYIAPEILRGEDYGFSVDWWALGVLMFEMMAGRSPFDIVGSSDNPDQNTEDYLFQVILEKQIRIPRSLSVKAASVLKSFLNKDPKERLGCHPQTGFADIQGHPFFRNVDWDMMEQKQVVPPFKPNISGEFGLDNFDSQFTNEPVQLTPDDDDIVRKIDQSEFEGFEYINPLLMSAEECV
Test: surface plasmon resonance, PKCι immobilized by amine coupling; also cell-free kinase assay IC50 […]
Type: binding

Kd: 6.3 nM
SMILES: CCc1c(O)c(O)c2c(c1O)C(=O)C(O)=C(O)C2=O [Ech A, 6-ethyl-2,3,5,7,8-pentahydroxy-1,4-naphthoquinone]
